{"source": "patent US20080241919A1", "about": "“Defined media for pluripotent stem cell culture” (The Burnham Institute of Medical Research, priority 2003, published 2008)", "system": "human embryonic stem cells (hESCs)", "assay": "Medium component requirement assay, hESCs on laminin/collagen-coated plates for seven days", "type": "cell-based", "conditions": "media that contained only the named growth factor", "description": "(a) Media containing bFGF, insulin, and ascorbic acid sustain the healthy undifferentiated growth of hESCs on laminin/collagen-coated plates. Insulin (20 μg/ml), transferrin (8 μg/ml), albumin (for example, the commercial product known as AlbuMAXI) (10 mg/ml), and ascorbic acid (50 μg/ml) were added to a base medium that consisted of 100% DMEM/F-12 with 20 ng/ml bFGF, 2 mM L-alanyl-L-glutamine, 1×MEM essential amino acids solution, 1×MEM non-essential amino acids solution, and 100 μM β-mercaptoethanol. The degree of differentiation was judged by morphology of the colonies and Oct-4 expression. […] (red). […] However, if ascorbic acid was omitted from the media [D, H, L] […] White arrows in all panels delineate the edge of an hESC colony. The area delineated by the white square in [A], [E], and [I] indicates the approximate area that is visualized at higher magnification in [B, C], [F, G], and [J, K], respectively. [C], [G], and [K] is the image in [B], [F], and [J], respectively, merged with DAPI staining of their nuclei (blue).\n(b) When either bFGF or insulin was omitted from the media, hESC colonies appeared to differentiate completely under the feeder- and serum-free conditions. […] The distinct growth effects of insulin and bFGF were further accentuated in media lacking ascorbic acid [C, F] (“NO Ascorbic Acid”). In the absence of ascorbic acid and in media that contained only insulin as the growth factor [C] (phase) (“NO Ascorbic Acid”), slower growth of the differentiated hESCs was observed (compare [A, B] to [C]). In ascorbic-acid-lacking media that contained bFGF as the only growth factor [F] […] White arrows in all panels delineate the edge of hESC colonies.\nHaving determined that substantial numbers of undifferentiated hESCs could be maintained over long periods in feeder-free environments using the bFGF-supplemented media described above, the necessity of other components in the medium to maintain hESCs in an undifferentiated state was next examined. “Knockout Serum Replacement” contains insulin, transferrin, ascorbic acid, amino acids, and AlbuMAX (a chromatographically-purified lipid-rich bovine serum albumin [BSA] with low IgG content, but nevertheless a xeno-derived product). Accordingly, whether insulin, transferrin, BSA, and ascorbic acid were essential components was assessed, in combination with bFGF, for maintaining hESCs in an undifferentiated state. The serum replacement components insulin (20 μg/ml), transferrin (8 μg/ml), albumin (AlbuMAX) (10 mg/ml), and ascorbic acid (50 μg/ml) were added to a base medium that consisted of DMEM/F-12 or KO-DMEM with bFGF (20 ng/ml), L-alanyl-L-glutamine or L-glutamine (2 mM), MEM essential amino acids solution (1×), MEM nonessential amino acids solution (1×), and β-mercaptoethanol (100 μM). To assay for the differentiation-forestalling activity of each of these components, undifferentiated hESCs were seeded on laminin/collagen-coated plates and cultivated for seven days in media containing one or more of the individual components. The degree of differentiation of the colonies was judged by defining morphology and Oct-4 expression.\nWhen either bFGF or insulin was omitted from the media, more than 90% of the colonies appeared to differentiate completely within the first passage, as indicated by their differentiated morphology (FIG. 2b, A,B,D,E), their complete loss of Oct-4 expression, and their expression of the cell surface marker SSEA-1 (FIG. 2c, B,C). […] The different effects of insulin and bFGF were accentuated further in media lacking ascorbic acid. In the absence of ascorbic acid and in media containing only insulin, the growth of differentiated hESCs was simply slower (FIG. 2b, C). […] Although albumin and transferrin are not crucial components for sustaining the undifferentiated growth of hESCs, they might abet survival or maintenance of a normal colony shape.", "data": [{"substance": "bFGF: basic fibroblast growth factor, growth factor added to the defined hESC media", "values": [{"measurement": "cell morphology in differentiated colonies", "result": "elliptically-shaped cells"}]}]}
